The text below walks through data of US20190127805A1, “GENE SIGNATURES FOR CANCER DETECTION AND TREATMENT” (ALMAC DIAGNOSTICS LIMITED, priority 2016, published 2019).

Read-outs that look alike come from different tables or passages of the source.

In assay [1] the test system is platinum sensitive recurrent ovarian cancer. The note with it: cited from earlier work.
Assay [2] has as its system ovarian cancer. The note with it: cited from earlier work.
Assay [3] concerns OVCAR3 isogenic cell lines co-cultured with ECFCs. Kind of assay: In-vivo Matrigel plug angiogenesis assay (micro-vessel density). Set-up: species or system Athymic nude mice. The following applies: 5 mg/kg IP; OVCAR3 cisplatin-resistant vs cisplatin-naïve cells, p-value 0.0024 (FIG. 44). The protocol:
All animal experiments were performed in conformity to UK Home Office Regulations (PPL2729) and with authorization from Queen's University Belfast Animal Welfare and Ethical Review Body (AWERB). Eight week-old male Athymic nude mice (Harlan Laboratories) were used. ECFC were inoculated at a high density of 2.45×106 and co-cultured with GFP-labelled OVCAR3 WT or GFP-labelled OVCAR3-CP at a density of 1.4×106. The GFP-labelled OVCAR3 WT and GFP-labelled OVCAR3-CP were seeded alone at a density of 1.4×106. Each condition was diluted in 10 μL of phenol red-free DMEM and re-suspended in 90 μL of growth factor-reduced Matrigel (Corning) and injected subcutaneously. After 8 days, mice were sacrificed under isoflurane anaesthesia using 31 gauge needless intraperitoneal (IP) administration of sodium pentobarbital at 200 mg/kg, and implants were removed and fixed in 4% formaldehyde overnight. Fixed Matrigel implants were then embedded in paraffin and 10 μm sections were prepared for staining. For 5 mg/Kg bevacizumab was administered IP once weekly for 14 days. Treatment was commenced on day 3. Mice were sacrificed after a 14-day treatment period as previously described.
IHC and immunofluorescence studies were conducted as previously describe. […] CD31 and αSMA stained vessels were then counted per high power field (200×) in three separate fields of three independent tumors from each group. […]

The test system of assay [4] is ovarian cancer. The note with it: cited from earlier work. The source holds these as a separate data set.
Assay [5] relates to platinum resistant epithelial ovarian cancer. The following applies: cited from earlier work.

“bevacizumab: recombinant humanised monoclonal antibody that binds to vascular endothelial growth factor A (VEGF-A)”: the “Median progression free survival” value in assay [1] (bevacizumab + gemcitabine and carboplatin (placebo+GC 8.4 months)) is 12.4 months. Moreover, in assay [1] (vs placebo+GC, 95% CI 0.388-0.605, p<0.0001), the “HR for progression free survival” value is listed as 0.484. Further, the “HR for PFS” value was 0.908 with ovarian cancer [2] (bevacizumab cycle 2-6, 95% CI 0.795 to 1.040, P=0.16) and 0.717 with ovarian cancer [2] (bevacizumab plus chemotherapy cycle 2-22, 95% CI 0.625 to 0.824, P<0.001). The PFS in the assay on ovarian cancer [2] (bevacizumab plus standard chemotherapy cycle 2-22 (control 10.3 months)) is recorded as 14.1 months; in the assay with ovarian cancer [2] (bevacizumab with standard chemotherapy cycle 2-6 (control 10.3 months)) it was 11.2 months; in assay [5] (patients treated with bevacizumab and paclitaxel), 9.6 months. Moreover, in assay [3], the “MVD (micro-vessel density)” value is recorded as “less MVD”. The “progression free survival (PFS)” value in the assay with ovarian cancer [4] (standard therapy plus bevacizumab (standard therapy alone 20.3 months)) is listed as 21.8 months. Moreover, the “hazard ratio (HR) for PFS” value in the assay on ovarian cancer [4] (vs standard therapy, 95% CI 0.70 to 0.94, P=0.004) is 0.81. Besides, the “objective response rate (ORR)” value in assay [5] (bevacizumab and chemotherapy) is given as 30.9%. Moreover, the overall survival in assay [5] (chemotherapy and bevacizumab arm (chemotherapy alone 13.3 months)) is recorded as 16.6 months. Also, the Progression free survival in assay [5] (single agent chemotherapy and bevacizumab (chemotherapy alone 3.4 months)) is recorded as 6.7 months. Also, in assay [5] (vs chemotherapy alone, 95% CI 0.32-0.53, p<0.001), the “hazard ratio for progression free survival” value is recorded as 0.42. Further, in assay [5] (vs chemotherapy alone, 95% CI 0.69-1.14, not statistically significant), the “HR for overall survival” value is 0.89.
